# Assay results reported in patent publication US20150001139A1, “REAL-TIME INTEGRITY MONITORING OF SEPARATION MEMBRANES” (THE REGENTS OF THE UNIVERSITY OF CALIFORNIA, priority 2013, published 2015).
# Columns and labels:
# [1] = cited from earlier work
# [2] = Preliminary evaluation of uranine fluorescence stability (pH, chlorine); type: physicochemical
# Experimental: Fluorescent molecular markers are subjected to screening criteria, including low toxicity, low background fluorescence in water, economic feasibility for long term use, and commercial availability. Screening criteria are also based on experiments, including stability with light exposure, strong fluorescent intensity, stability under various pH conditions, and stability under chlorine exposure.
# Uranine stock solutions were prepared from reagent-grade uranine powder (Fisher Scientific, Pittsburgh, Pa.) dissolved in ultra-pure deionized water from a Milli-Q water purification system (Millipore Corp., San Jose, Calif.). RO desalting runs were conducted using low salinity potable tap water (average reported total dissolved solids (TDS) of about 265 mg/l, TOC of about 1.7 mg/l, and total hardness of about 113 mg/l as CaCO3).
compound,measurement,setting,value
O=C(O)c1c(Cl)c(Cl)c(Cl)c(Cl)c1-c1c2cc(I)c(=O)c(I)c-2oc2c(I)c(O)c(I)cc12 [Bengal rose],Solubility in Water,[1],100 mg/mL
O=C(O)c1ccccc1-c1c2cc([N+](=O)[O-])c(=O)c(Br)c-2oc2c(Br)c(O)c([N+](=O)[O-])cc12 [Eosin B],Solubility in Water,[1],40 mg/mL
Cc1ccc(N2C(=O)c3cccc4c(N)c(S(=O)(=O)[O-])cc(c34)C2=O)cc1.[Na+] [Lissamine FF],Solubility in Water,[1],40 mg/mL
O=S(=O)([O-])c1cc(O)c2ccc3c(S(=O)(=O)[O-])cc(S(=O)(=O)[O-])c4ccc1c2c34.[Na+].[Na+].[Na+] [Pyranine],Solubility in Water,[1],178 mg/mL
CCN(CC)c1ccc2c(-c3ccc(S(=O)(=O)O)cc3S(=O)(=O)[O-])c3ccc(=[N+](CC)CC)cc-3oc2c1 [Sulforhodamine B],Solubility in Water,[1],10 mg/mL
O=S(=O)([O-])c1ccccc1C=Cc1ccc(-c2ccc(C=Cc3ccccc3S(=O)(=O)[O-])cc2)cc1.[Na+].[Na+] [Tinopal CBS-X],Solubility in Water,[1],25 mg/mL
O=C([O-])c1ccccc1-c1c2ccc(=O)cc-2oc2cc([O-])ccc12.[Na+].[Na+] [Uranine],chlorine tolerance of fluorescence,[2]; about 1-4 ppm of free chlorine,high level of chlorine tolerance
same,stability of fluorescence intensity with pH,"[2]; typical RO process pH operating range, pH of about 6-8",stable fluorescence intensity
Amidorhodamine G,Solubility in Water,[1],very soluble
Erythrosine,Solubility in Water,[1],20 mg/mL
Lanaperl fast yellow,Solubility in Water,[1],very soluble
Sodium naphtionate,Solubility in Water,[1],240 mg/mL
